Assay results as given in patent publication US12605424B2 (priority 2019, dated 2026).
Like-named read-outs stand apart in the source and are kept apart here.

What was measured:
[1] = system: Br2 (600/30) exposed neonatal mice; details: mouse, in vivo
[2] = system: human bronchial epithelial cells (HBECs); assay type: cell-based
[3] = system: C57BL/6 mice exposed to Br2 gas; details: mouse, in vivo
[4] = system: C57BL/6 mice exposed to Cl2, Br2 or COCl2; details: mouse, in vivo
[5] = system: Neonatal mice exposed to Cl2; details: mouse, in vivo
[6] = system: P. aeruginosa (strain PAK); details: mouse, in vivo
[7] = system: P aeruginosa; assay type: cell-based, mouse
[8] = system: C57BL/6 mice exposed to COCl2; details: mouse, in vivo
[9] = system: Mice having sickle cell disease exposed to chlorine; details: mouse, in vivo
[10] = system: C57bl/6 mice exposed to Br2; details: mouse, in vivo
[11] = mouse, in vivo
[12] = mouse, in vivo; remark: listed apart in the source
[13] = mouse, in vivo; cited from earlier work
[14] = target: ENaC (Homo sapiens, UniProt P37088+P51168+P51170); assay type: cell-based
Sequence of ENaC (P51168 whole entry): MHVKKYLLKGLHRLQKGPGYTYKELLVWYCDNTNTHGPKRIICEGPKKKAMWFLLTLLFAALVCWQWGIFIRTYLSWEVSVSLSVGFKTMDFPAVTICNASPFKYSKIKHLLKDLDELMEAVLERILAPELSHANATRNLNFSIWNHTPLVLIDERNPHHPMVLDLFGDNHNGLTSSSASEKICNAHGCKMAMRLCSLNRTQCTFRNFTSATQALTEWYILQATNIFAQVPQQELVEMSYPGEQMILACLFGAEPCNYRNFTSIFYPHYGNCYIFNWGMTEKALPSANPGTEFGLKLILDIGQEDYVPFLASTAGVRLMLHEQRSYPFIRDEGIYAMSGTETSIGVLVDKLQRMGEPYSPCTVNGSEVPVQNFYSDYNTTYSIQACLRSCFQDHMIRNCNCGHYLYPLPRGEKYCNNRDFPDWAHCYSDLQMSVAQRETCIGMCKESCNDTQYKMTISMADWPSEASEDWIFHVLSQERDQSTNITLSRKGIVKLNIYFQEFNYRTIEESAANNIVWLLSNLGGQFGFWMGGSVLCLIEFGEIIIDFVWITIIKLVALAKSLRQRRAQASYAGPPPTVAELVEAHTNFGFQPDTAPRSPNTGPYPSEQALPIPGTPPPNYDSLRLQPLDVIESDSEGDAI
Sequence of ENaC (P51170 whole entry): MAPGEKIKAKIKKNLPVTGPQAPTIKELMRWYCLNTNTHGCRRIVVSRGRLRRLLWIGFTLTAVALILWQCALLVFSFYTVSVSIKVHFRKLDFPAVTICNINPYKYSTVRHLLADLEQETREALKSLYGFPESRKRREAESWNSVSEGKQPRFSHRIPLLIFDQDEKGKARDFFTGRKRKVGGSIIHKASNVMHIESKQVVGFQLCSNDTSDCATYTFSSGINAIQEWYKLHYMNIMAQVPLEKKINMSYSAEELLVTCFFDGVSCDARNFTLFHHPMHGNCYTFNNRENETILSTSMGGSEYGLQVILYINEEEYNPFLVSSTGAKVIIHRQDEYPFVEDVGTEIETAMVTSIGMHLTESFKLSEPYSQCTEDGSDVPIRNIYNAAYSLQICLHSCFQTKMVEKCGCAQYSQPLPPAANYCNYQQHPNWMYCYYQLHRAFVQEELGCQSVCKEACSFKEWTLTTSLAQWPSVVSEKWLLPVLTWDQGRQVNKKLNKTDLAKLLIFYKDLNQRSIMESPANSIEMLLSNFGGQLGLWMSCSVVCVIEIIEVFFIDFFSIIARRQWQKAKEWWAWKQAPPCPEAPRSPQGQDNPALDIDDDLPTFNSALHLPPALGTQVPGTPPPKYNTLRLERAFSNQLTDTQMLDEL
Sequence of ENaC (P37088 whole entry): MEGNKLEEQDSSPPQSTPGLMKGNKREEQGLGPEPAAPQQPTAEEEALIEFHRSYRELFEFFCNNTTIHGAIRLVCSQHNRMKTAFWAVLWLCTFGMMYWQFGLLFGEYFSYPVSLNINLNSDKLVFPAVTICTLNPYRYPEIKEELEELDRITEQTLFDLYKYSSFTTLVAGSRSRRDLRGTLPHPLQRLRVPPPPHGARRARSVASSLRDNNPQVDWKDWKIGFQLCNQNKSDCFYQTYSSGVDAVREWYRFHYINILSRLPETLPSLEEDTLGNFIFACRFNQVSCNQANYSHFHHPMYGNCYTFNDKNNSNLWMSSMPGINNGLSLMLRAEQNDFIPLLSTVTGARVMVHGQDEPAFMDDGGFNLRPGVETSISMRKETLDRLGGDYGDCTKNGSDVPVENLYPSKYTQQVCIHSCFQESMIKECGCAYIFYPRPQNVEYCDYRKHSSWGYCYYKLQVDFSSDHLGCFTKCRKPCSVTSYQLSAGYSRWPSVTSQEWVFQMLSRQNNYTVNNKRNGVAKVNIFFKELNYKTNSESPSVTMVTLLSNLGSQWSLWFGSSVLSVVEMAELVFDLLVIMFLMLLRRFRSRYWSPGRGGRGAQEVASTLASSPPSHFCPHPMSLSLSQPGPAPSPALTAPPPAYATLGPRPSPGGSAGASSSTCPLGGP

[15] = target: CFTR (Homo sapiens, UniProt P13569); assay type: cell-based
[16] = system: Na^+/K^+-ATPase; assay type: cell-based, human
[17] = target: α, β, γ-hENaC (Homo sapiens, UniProt P37088+P51168+P51170); assay type: cell-based
Sequence of α, β, γ-hENaC (P51168 whole entry): as the sequence (P51168 whole entry) above
Sequence of α, β, γ-hENaC (P51170 whole entry): as the sequence (P51170 whole entry) above
Sequence of α, β, γ-hENaC (P37088 whole entry): as the sequence (P37088 whole entry) above

[18] = target: 4 pS amiloride-sensitive highly Na^+ selective channel (ENaC) (Mus musculus, UniProt Q61180+Q9WU38+Q9WU39); assay type: cell-based
Sequence of 4 pS amiloride-sensitive highly Na^+ selective channel (ENaC) (Q9WU38 whole entry): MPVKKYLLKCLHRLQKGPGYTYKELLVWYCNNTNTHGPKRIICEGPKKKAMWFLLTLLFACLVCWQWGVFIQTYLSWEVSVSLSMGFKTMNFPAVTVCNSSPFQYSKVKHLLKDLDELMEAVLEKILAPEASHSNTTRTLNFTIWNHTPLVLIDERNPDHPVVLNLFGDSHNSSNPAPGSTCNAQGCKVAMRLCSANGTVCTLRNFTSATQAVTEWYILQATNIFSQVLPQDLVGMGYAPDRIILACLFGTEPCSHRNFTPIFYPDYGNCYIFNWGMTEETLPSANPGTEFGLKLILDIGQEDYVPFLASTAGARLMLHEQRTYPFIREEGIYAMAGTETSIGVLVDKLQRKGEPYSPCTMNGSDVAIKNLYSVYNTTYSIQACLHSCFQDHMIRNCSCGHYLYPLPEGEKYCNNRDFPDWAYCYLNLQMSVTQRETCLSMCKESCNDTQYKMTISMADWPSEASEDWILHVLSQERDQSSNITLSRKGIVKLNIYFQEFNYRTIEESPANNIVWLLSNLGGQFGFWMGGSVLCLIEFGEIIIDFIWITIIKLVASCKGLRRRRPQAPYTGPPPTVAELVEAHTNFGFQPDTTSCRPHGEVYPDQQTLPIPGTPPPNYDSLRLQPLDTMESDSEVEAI
Sequence of 4 pS amiloride-sensitive highly Na^+ selective channel (ENaC) (Q9WU39 whole entry): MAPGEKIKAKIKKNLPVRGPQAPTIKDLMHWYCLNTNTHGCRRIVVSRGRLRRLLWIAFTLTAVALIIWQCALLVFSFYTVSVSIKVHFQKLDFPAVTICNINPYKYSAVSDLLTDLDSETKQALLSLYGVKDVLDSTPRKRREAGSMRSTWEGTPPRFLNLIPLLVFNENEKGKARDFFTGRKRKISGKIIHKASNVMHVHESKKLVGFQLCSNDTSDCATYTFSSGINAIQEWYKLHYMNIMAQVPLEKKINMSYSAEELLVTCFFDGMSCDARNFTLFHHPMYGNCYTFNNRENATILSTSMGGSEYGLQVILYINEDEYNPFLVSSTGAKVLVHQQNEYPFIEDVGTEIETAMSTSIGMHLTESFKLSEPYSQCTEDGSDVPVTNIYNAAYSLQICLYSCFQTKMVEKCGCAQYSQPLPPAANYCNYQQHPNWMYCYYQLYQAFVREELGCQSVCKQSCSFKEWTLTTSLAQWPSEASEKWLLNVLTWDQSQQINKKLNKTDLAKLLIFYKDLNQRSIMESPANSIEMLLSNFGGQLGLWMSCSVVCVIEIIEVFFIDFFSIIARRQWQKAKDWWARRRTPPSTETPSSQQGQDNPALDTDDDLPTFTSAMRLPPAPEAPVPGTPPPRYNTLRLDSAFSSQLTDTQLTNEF
Sequence of 4 pS amiloride-sensitive highly Na^+ selective channel (ENaC) (Q61180 whole entry): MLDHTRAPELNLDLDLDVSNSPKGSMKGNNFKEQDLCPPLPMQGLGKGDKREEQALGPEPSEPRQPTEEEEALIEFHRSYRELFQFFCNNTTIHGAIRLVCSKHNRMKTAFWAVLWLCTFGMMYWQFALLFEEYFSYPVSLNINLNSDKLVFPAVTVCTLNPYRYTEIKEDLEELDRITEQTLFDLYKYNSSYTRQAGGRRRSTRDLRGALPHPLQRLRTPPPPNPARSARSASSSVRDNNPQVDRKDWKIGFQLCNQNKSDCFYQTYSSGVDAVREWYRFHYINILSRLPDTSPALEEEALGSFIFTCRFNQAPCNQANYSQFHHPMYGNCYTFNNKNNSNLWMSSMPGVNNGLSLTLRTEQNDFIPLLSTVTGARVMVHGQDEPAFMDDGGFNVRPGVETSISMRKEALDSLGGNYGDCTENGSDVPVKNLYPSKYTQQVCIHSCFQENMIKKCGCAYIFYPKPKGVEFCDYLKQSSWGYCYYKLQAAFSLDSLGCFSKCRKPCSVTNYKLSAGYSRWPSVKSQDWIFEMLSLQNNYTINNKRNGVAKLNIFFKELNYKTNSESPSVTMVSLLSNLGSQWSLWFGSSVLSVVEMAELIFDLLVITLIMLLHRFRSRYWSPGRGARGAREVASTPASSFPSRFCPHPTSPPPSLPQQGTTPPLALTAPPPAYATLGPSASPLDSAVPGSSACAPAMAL

[19] = system: 16 pS non-selective cation channel; assay type: cell-based, mouse; details: read-out: IC50, decrease of open probability of 16 pS channel

OCC1OC([S][Au])C(O)C(O)C1O [ATG, gold(1+);(3R,4S,5S,6R)-3,4,5-trihydroxy-6-(hydroxymethyl) oxane-2-thiolate, reference compound]
mortality [1]: not effective | systemic hypoxia [1]: not effective

BrBr [Br2, bromine]
ER stress marker ATF4 [2]: increased | ER stress marker CHOP [2]: remained unaltered

O=C(/C=C/c1ccccc1)NC(NC(=S)Nc1cccc2cccnc12)C(Cl)(Cl)Cl (stereo not drawn) [salubrinal, (2E)-3-Phenyl-N-[2,2,2-trichloro-1-[[(8-quinolinylamino)thioxomethyl]amino]ethyl]2-propenamide, reference compound]
BALF elastase activity [3]: attenuated | BALF protein levels [3]: ameliorated | BALF total cell count [3]: ameliorated | Masson's trichrome staining of lungs (collagen, fibrotic changes) [3]: decreased collagen levels and lung fibrotic changes | alveolar mean linear intercept (Lm) [3]: attenuated | lung CHOP levels (immunoblot) [3]: decrease | lung hydroxyproline levels [3]: decreased collagen levels | lung phosphorylated eIF2α (immunoblot) [3]: significant increase | lung volumes (PV curve), lung compliance and inspiratory capacity [3]: prevented Br2-induced increase | plasma elastase levels [3]: attenuated

Hemopexin [Hpx]
ATF4 and CHOP, immunohistochemical staining of lung sections ([3]; ip): attenuated ATF4 and CHOP levels around airways and completely abrogated the ER stress markers in the lung parenchyma | BALF elastase activity ([3]; ip): lower | BALF protein levels ([3]; ip): significantly reduced | BALF total cell count ([3]; ip): significantly reduced | PV curve, lung compliance and inspiratory capacity ([3]; ip): prevented the shifting of the PV curve | alveolar Lm ([3]; ip): reduced | lung ATF4 (immunoblot) ([3]; ip): low levels | lung CHOP (immunoblot) ([3]; ip): low levels | lung collagen levels on Masson's trichrome staining ([3]; ip): significantly reduced | lung hydroxyproline levels ([3]; ip): significantly reduced | overall mortality (Kaplan-Meier) ([3]; ip): reduced overall mortality | plasma elastase levels ([3]; ip): lower | plasma heme ([3]; ip): reduced | BALF heme [4]: attenuated | BALF inflammatory cell count [4]: attenuated | BALF protein levels [4]: reduced | BALF proteins [4]: attenuated | mortality (Kaplan-Meier) [4]: reduced mortality | apical cytoplasm of the bronchial epithelium (histology) [5]: exhibited some improvement | cellularity of alveolar septae (histology) [5]: exhibited some recovery | mean linear intercept (MLI) [5]: decreased MLI | survival [5]: improved survival | mortality [1]: not effective | systemic hypoxia [1]: not effective | bacterial colonies from lung homogenates on agar plates [6]: grew fewer bacterial colonies | survival [6]: improved survival | bactericidal function of neutrophils (bacterial colonies on agar) [7]: improved neutrophil function | BALF protein levels [8]: reduced BALF protein levels | probability of survival [9]: higher probability of survival | survival (Kaplan Meier) [10]: improved survival | time plasma level is maintained / remains stable [11]: at least 24 h | plasma bioavailability (plasma concentration) ([11]; im): about 25 μg/ml | plasma [IgM] relative to control [12]: ≤ 8% | serum half-life [13]: approximately 7 days

ferric chloride heme
ER stress marker ATF4 [2]: increased | ER stress marker CHOP [2]: increased | ENaC activity [14]: totally inhibited | transepithelial resistance [14]: above 1500 Ohms*cm^2 | EC50 ([14]; read-out: EC50, inhibition of trans-epithelial Na^+ transport across human airway cells): 500 nM | IC50 ([14]; read-out: IC50, inhibition of amiloride-sensitive ENaC short circuit current): ~500 nM | forskolin-stimulated, GlyH-101-inhibited CFTR currents [15]: inhibited amiloride-sensitive, ENaC, but not forskolin-stimulated, GlyH-101-inhibited, CFTR, currents | Na^+/K^+-ATPase function (ouabain-sensitive current) [16]: did not impair | Na^+ current (whole cell) [17]: inhibited | inhibition of whole-cell Na^+ current ([17]; 1 µM): 80% | EC50 ([18]; read-out: EC50, inhibition of ENaC and cation Na^+ channels in mouse alveolar cells): 125 nM | IC50 ([18]; read-out: IC50, decrease of open probability of 4 pS channel): 125 nM | IC50 [19]: 125 nM

heme-Hpx complex: complex of heme with hemopexin
serum half-life [13]: approximately 7 h

nitrite [reference compound]
survival (Kaplan Meier) [10]: improved survival early
